This is an account of results in patent publication US20120157532A1, “Method Of Treating Or Preventing A Convulsive Disorder In A Patient In Need Thereof” (priority 2009, published 2012).

Data set [1] concerns Wistar rats Rj Wi IOPS Han. The data set can be described thus: Photopic electroretinogram (ERG) in VGB-treated rats. Format: in vivo, rat. Particulars: for photopic ERG amplitude versus control group: p<0.001/p<0.01. On the procedure:
(§1) Animal treatments: As described previously (Duboc et al., 2004), Wistar rats Rj Wi IOPS Han were purchased from Janvier (Le Genest-St-lsle, France) at between six and seven weeks of age. VGB dissolved in 0.9% NaCl was administered at 40 mg (125 mg/ml, 0.32 ml) to rats by daily intraperitoneal injection for 65 days. These daily doses (rats: 200 mg/kg) are in-line with those described for the treatment of epilepsy in animals (Andre et al., 2001) or in humans (adult patients: […]; children: 50-75 mg/kg; or infants: 100-150 mg/kg) (Aicardi et al., 1996; Chiron et al., 1997; Lux et al., 2004). Light intensity in the animal cages ranged between 125 and 130 lux.
Electroretinogram (ERG): Photopic ERGs were recorded after the last VGB injection, as described previously (Duboc et al., 2004). Anesthesia was induced by intraperitoneal injection (0.8 to 1.2 ml/kg) of a solution containing ketamine (40 mg/ml) and xylazine (4 mg/ml Rompum). Animals were light-adapted for 10 minutes with a background light of 25 cdm^−2. Light flashes were then applied on this background light; the light intensity of the flash was 25 cdsm^−2. Ten recordings were averaged with an interstimulus interval of 30 s.
Statistical analysis: Statistical analysis of the results was performed by a one-way analysis of variance with the Student-Newman Keuls test (Sigmastat) for all measurements.

Data set [2] relates to Wistar rats Rj Wi IOPS Han. As to the kind of experiment: Histology: lengths of disorganised retinal areas (DAPI nuclear staining). Format: in vivo, rat. The settings on record: evening versus morning injection, 65 days; p<0.05. On the procedure:
as §1
Histology: Eye cups were fixed overnight at 4° C. in 4 % (wt/vol) paraformaldehyde in phosphate buffered saline (PBS; 0.01 M, pH 7.4). The tissue was cryoprotected in successive solutions of PBS containing 10%, 20% and 30% sucrose at 4° C., oriented along the dorso-ventral axis and embedded in OCT (Labonord, Villeneuve d'Ascq, France). […]
(§2) For quantification, vertical sections along the dorso-ventral axis were selected at the optic nerve. Following DAPI nuclear staining, the lengths of disorganised retinal areas were measured; GFAP immunostaining was used for detection and quantificationof retinal areas with reactive gliosis. […]

The subject of data set [3] is Wistar rats Rj Wi IOPS Han. As to the kind of experiment: Histology: retinal gliosis by GFAP immunolabelling. It counts as in vivo, rat. Particulars: 65 days. On the procedure:
as §1
Histology: Eye cups were fixed overnight at 4° C. in 4 % (wt/vol) paraformaldehyde in phosphate buffered saline (PBS; 0.01 M, pH 7.4). The tissue was cryoprotected in successive solutions of PBS containing 10%, 20% and 30% sucrose at 4° C., oriented along the dorso-ventral axis and embedded in OCT (Labonord, Villeneuve d'Ascq, France). Retinal sections (8-10 μm thickness) were permeabilised for five minutes in PBS containing 0.1% Triton X-100 (Sigma, St. Louis, Mo.), rinsed, and incubated in PBS containing 1% bovine serum albumin (Eurobio, Les-Ulis, France), 0.1% Tween 20 (Sigma), and 0.1% sodium azide (Merck, Fontenay-Sous-Bois, France) for two hours at room temperature. The primary antibody added to the solution was incubated for two hours at room temperature. Polyclonal antibodies were directed against rabbit GFAP (1/400, Dako, USA). Sections were rinsed and then incubated with the secondary antibody, goat anti-rabbit IgG conjugated to Alexa TM488 (1:500, Molecular Probes, Eugene, Oreg.) for two hours. The dye, diamidiphenyl-indole (DAPI), was added during the final incubation period. […]
as §2

For data set [4] the following is noted: patients, oral administration; cited from earlier work.
The subject of data set [5] is visual field. Particulars: patients; cited from earlier work.
Data set [6] concerns the target GABA transaminase (Homo sapiens, UniProt P80404). Particulars: cited from earlier work.

Chain of GABA transaminase (P80404 29-500, species assumed): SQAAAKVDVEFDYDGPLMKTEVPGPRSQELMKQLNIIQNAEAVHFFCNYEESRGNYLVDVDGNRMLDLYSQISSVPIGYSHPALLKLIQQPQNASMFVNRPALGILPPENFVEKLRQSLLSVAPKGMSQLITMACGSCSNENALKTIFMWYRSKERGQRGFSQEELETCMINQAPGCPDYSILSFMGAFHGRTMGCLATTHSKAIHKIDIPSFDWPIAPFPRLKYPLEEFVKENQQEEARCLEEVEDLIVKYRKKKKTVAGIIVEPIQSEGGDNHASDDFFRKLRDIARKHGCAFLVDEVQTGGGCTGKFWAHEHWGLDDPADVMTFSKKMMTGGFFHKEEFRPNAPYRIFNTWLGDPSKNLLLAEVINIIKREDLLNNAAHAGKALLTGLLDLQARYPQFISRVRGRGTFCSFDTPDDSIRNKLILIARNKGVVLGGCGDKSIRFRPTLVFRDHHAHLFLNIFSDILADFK

Consider `C=CC(N)CCC(=O)O` (centres unmarked) [VGB, 4-amino-5-hexenoic acid], for which the “photopic ERG amplitude versus control group” value in data set [1] (VGB AM: 40 mg daily i.p. for 65 days at the beginning of the light cycle) and in data set [1] (VGB PM: 40 mg daily i.p. for 65 days at the end of the light cycle) was “lower ERG amplitude” throughout. In data set [1] (injected at the end versus the beginning of the light cycle, 65 days, p<0.005), the “ERG amplitude decrease, VGB PM versus VGB AM” value is “less important”. Moreover, the “disorganised retinal areas (outer nuclear layer), VGB PM versus VGB AM” value in data set [2] is “smaller disorganised retinal areas”. The “GFAP staining in the outer retina versus control animals” value in data set [3] (VGB AM: morning injection) and in data set [3] (VGB PM: evening injection) was “intense staining in the outer retina” in each case. Further, the “distribution of GFAP-positive areas, VGB PM versus VGB AM” value in data set [3] (evening versus morning injection, p<0.05) is “less widely distributed”. For the same compound, the “time for plasma VGB concentration to decrease to half of the peak concentration” value in data set [4] is on record as “within six to eight hours”. Moreover, the “time to peak plasma VGB concentration” value in data set [4] is reported as “within an hour”. In addition, the “effect on visual field” value in data set [5] is listed as “irreversible constriction of the visual field”. Further, the “duration of irreversible inhibition of the GABA transaminase” value in data set [6] is on record as “lasts for few days”.
